Where a name gives a salt, the structure may show the parent alone.

Data set [1] concerns the target T1, V2 (Homo sapiens, UniProt P30518). Briefly: V2 cAMP. Format: cell-based.
The test system of data set [2] is vasopressin-induced hypertension in anesthetized rats. Put plainly: Reversal of vasopressin-induced hypertension in rats (intraduodenal dosing). It counts as in vivo, rat. As to conditions: I.D. dose 10 mg/kg, single dose into the duodenum, maximum percent reversal, monitored for 60 minutes. The method, then:
Reversal of Vasopressin-Induced Hypertension in Rats
The anti-hypertensive activity of compounds was screened in an anesthetized model of vasopressin-induced hypertension. Male Long Evans, normotensive rats of between 350 and 450 g in body weight were anesthetized with pentobarbital (35 mg/kg, ip) and maintained throughout the procedure with an ip infusion of 10 mg/kg/hr. Arginine vasopressin was infused at 30 ng/kg/min, iv, to induce a stable hypertensive state (ca. 50 mmHg increase in mean arterial blood pressure). Compounds of interest were administered in an ascending dose fashion and the maximum decrease in mean arterial blood pressure was recorded. An ED50 was determined from the linear portion of the dose-response relationship for each animal.
This model was modified slightly to assess the bioavailability of compounds of interest. Rather than dosing the animals iv in an ascending dose fashion, a single dose per animal was administered directly into the duodenum. The anti-hypertensive effects were then monitored for 60 minutes and the maximum percent reversal was calculated.

The target in data set [3] is T1, V2. Briefly: In vitro recombinant vasopressin receptor binding assay (V2 Bdg), displacement of 3H-arginine vasopressin. Further details: expressed in transfected cells; host or cells: HEK-293. Particulars: membrane with cloned human V-2 receptor (HEK-293). In outline:
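Displacement of ³H-vasopressin from membranes of HEK-293 cells bearing cloned human V-2 receptor, incubated with test compound one hour at room temperature. Bound label was collected on PEI-soaked GF/C filters, washed with cold saline/0.05% Tween 20, and counted by scintillation.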

The next data set deals with T2, human V-1 receptor (Homo sapiens, UniProt P37288).
T2 construct: expressed in transfected cells; host or cells: HEK-293
Briefly: In vitro recombinant vasopressin receptor binding assay (V1 Bdg), displacement of 3H-arginine vasopressin. As to conditions: read-out: V1 Bdg (% inh, 0.1 uM). In outline:
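Membranes from HEK-293 cells bearing cloned human V-1 receptor, incubated 1 h at room temperature with 0.65-0.75 nM 3H-arginine-8-vasopressin in pH 7.5 Tris/MgCl2/BSA buffer with protease inhibitors. Filtration onto GF/C, scintillation count. Non-specific binding with 1.25 uM arginine-8-vasopressin.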

T1 sequence (P30518 whole entry): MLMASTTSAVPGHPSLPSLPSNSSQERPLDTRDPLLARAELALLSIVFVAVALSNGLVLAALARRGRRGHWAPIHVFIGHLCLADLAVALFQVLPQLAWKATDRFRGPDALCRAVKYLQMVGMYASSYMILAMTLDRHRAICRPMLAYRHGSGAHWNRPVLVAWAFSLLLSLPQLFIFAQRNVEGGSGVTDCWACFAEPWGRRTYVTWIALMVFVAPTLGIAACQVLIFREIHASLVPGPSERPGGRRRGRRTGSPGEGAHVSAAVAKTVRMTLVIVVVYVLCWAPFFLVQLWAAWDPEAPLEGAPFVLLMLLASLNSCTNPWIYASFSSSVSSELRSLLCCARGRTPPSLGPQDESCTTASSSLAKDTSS
T2 sequence (P37288 whole entry): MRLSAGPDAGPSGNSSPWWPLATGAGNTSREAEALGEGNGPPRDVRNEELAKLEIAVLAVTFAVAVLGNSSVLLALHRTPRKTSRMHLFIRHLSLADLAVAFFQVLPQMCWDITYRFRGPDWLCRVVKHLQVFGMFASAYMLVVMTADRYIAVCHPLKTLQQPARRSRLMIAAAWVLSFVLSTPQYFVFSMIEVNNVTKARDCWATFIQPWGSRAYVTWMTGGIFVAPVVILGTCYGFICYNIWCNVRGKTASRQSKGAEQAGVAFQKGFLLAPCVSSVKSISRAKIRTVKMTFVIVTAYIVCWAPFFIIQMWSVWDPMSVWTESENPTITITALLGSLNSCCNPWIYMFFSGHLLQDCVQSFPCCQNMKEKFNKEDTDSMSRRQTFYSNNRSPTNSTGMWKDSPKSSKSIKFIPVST

Turning to `O=C(Nc1ccc(C(=O)N2C[C@H]3COCCN3Cc3ccccc32)c(Cl)c1)c1ccccc1-c1ccccc1` [Compound 4, (S)-2-Phenyl-N-[3-chloro-4-(1,3,4,12a-tetrahydro-6H-[1,4]oxazino[4,3-a][1,4]-benzodiazepin-11(12H)-yl-carbonyl)phenyl]benzamide], the concentration for half-maximal inhibition (IC50) is 11 nM at V2 [1] and 2 nM on V2 [3]. Moreover, the “BP Reduction (%)” value in data set [2] is 100%.
For the molecule `O=C(Nc1ccc(C(=O)N2CC3COCCN3Cc3ccccc32)cc1O)c1ccccc1-c1ccccc1` (racemic) (as salt: HCl) [Compound 22, (RS)-2-Phenyl-N-[2-hydroxy-4-(1,3,4,12a-tetrahydro-6H-[1,4]oxazino[4,3-a][1,4]-benzodiazepin-11(12H)-yl-carbonyl)phenyl]benzamide], the melting point was 188 to 195 °C (dec.).
`O=C(Nc1ccc(C(=O)N2CC3CC=CCN3Cc3ccccc32)cc1)c1ccccc1-c1ccccc1` (stereo not shown) [Compound 2, 10-[4-[[(2-Biphenyl)carbonyl]amino]benzoyl]-10,11-dihydro-5H-(tetrahydropyridino)[2,1-c][1,4]benzodiazepine]: the inhibition at 0.1 µM at human V-1 receptor was determined as 29%. The IC50 at V2 [1] was determined as 460 nM; at V2 [3], 14 nM.
As for `O=C(Nc1ccc(C(=O)N2CC3CCCCN3Cc3ccccc32)cc1)c1ccccc1-c1ccccc1` (stereo not shown) [Compound 1, 10-[4-[[(2-Biphenyl)carbonyl]amino]benzoyl]-10,11-dihydro-5H-piperidino[2,1-c][1,4]benzodiazepine], the inhibition at 0.1 µM on human V-1 receptor turned out to be 31%. For the same molecule, the figures for the IC50 on V2 [1] and on V2 [3] were 210 nM and 9 nM, respectively. In data set [2], the “BP Reduction (%)” value is on record as 67%.
For the molecule `O=C(Nc1ccc(C(=O)N2CC3CSCCN3Cc3cc(F)c(F)cc32)cc1)c1ccccc1-c1ccccc1` (racemic) (as salt: HCl) [Compound 35, (RS)-2-Phenyl-N-[4-(8,9-difluoro-1,3,4,12a-tetrahydro-6H-[1,4]thiazino[4,3-a][1,4]-benzodiazepin-11(12H)-yl-carbonyl)phenyl]benzamide], the melting point was in the range of 194 to 199 °C.
`Cc1ccc2c(c1)CN1CCSCC1CN2C(=O)c1ccc(NC(=O)c2ccccc2-c2ccccc2)cc1` (racemic) (as salt: HCl) [Compound 36, (RS)-2-Phenyl-N-[4-(8-methyl-1,3,4,12a-tetrahydro-6H-[1,4]thiazino[4,3-a][1,4]-benzodiazepin-11(12H)-yl-carbonyl)phenyl]benzamide]: the melting point lay within 191 to 196 °C.
On to `O=C(Nc1ccc(C(=O)N2CC3COCCN3Cc3ccccc32)c(O)c1)c1ccccc1-c1ccccc1` (racemic) (as salt: HCl) [Compound 23, (RS)-2-Phenyl-N-[3-hydroxy-4-(1,3,4,12a-tetrahydro-6H-[1,4]oxazino[4,3-a][1,4]-benzodiazepin-11(12H)-yl-carbonyl)phenyl]benzamide], for which the melting point was 185 to 188 °C (dec.).
For `O=C(Nc1ccc(C(=O)N2CC3CSCCN3Cc3ccccc32)cc1)c1ccccc1-c1ccccc1` (racemic) [Compound 3, (RS)-2-Phenyl-N-[4-(1,3,4,12a-tetrahydro-6H-[1,4]thiazino[4,3-a][1,4]-benzodiazepin-11(12H)-yl-carbonyl)phenyl]benzamide], the inhibition at 0.1 µM on human V-1 receptor was 42%. In addition, the “BP Reduction (%)” value in data set [2] was 100%.

These data come from US6713475B2, “Tricyclic benzodiazepines as vasopressin receptor antagonists” (Ortho-McNeil Pharmaceutical, Inc., priority 1999, dated 2004).
